Test results taken from US20220241409A1, “WATER SOLUBLE ADJUVANT AND COMPOSITION CONTAINING SAME” (Sumitomo Dainippon Pharma Co., Ltd., priority 2019, published 2022).

What was measured:
[1] = tested on: HLA-A*24:02 transgenic mouse; experiment: In vivo adjuvant activity, CTL induction with vaccine e, IFNγ ELISPOT (Test 16); conditions: 0.4 nmol per body added to vaccine e versus no compound; twice
Description: The in vivo adjuvant activity of the compound of Example 2 was evaluated in the following procedure. To a vaccine prepared by mixing Peptide SEQ ID No. 18 prepared in Reference example 18 with Montanide ISA 51 VG (hereinafter, referred to as “vaccine e”) was added the compound prepared in Example 2 to prepare a vaccine. The vaccine was administered to a HLA-A*24:02 transgenic mouse, and the adjuvant activity of the vaccine was evaluated by the method of testing antigen-specific CTL induction. The TYAGCLSQIF in Peptide SEQ ID No. 18 corresponds to an antigen peptide derived from an HLA-A*24:02-restricted Or7c1 protein.
The character for inducing CTLs specific to the antigen peptide (SEQ ID No. 18) by vaccine e was evaluated by measuring whether IFNγ can be produced upon stimulation of splenocytes from the mouse with the peptide. In addition, the character for exerting in vivo adjuvant activity by the compound in Example 2 was evaluated by comparing the number of CTLs induced by vaccine e and the number of CTLs induced by the vaccine prepared by adding the compound prepared in Example 2 to vaccine e, and checking presence or absence of the increase on the number.
Specifically, Peptide of SEQ ID No. 18 was dissolved in DMSO, and then diluted with water for injection to concentrations of 3 mg/mL. […]

Antigen-Specific CTL = experiment: Immune response of antigen-specific CTL for peptide and tumor cell, vaccine a (Test 11); type: in vivo, mouse
Description: The immune response of CTL induced with a vaccine comprising the present compound in the presence of tumor cells was evaluated in the following procedure. The vaccine was administered to a HLA-A*02:01 transgenic mouse to prepare splenocyte comprising an antigen peptide-specific CTL, and the immune response was evaluated by incubating the spelenocyte in the presence of tumor cells and antigen peptides.
Specifically, vaccine a prepared like Test 6 was injected to a HLA-A*02:01 transgenic mouse intradermally at the tail base area in an amount for administering 300 μg of Compound of formula 4 per body and 225 μg of Peptide SEQ ID No. 3 per body. Or, in the step of preparing vaccine a, the compound prepared in Example 3 was added to the diluted peptide solution to prepare a vaccine, and the prepared vaccine was injected to a HLA-A*02:01 transgenic mouse intradermally at the tail base area in an amount for administering 300 μg of Compound of formula 4 per body, 225 μg of Peptide SEQ ID No. 3 per body, and 32.5 ng of the compound prepared in Example 3 per body. The administrations were done twice, which had one week interval. One week after the final administration, the mice were sacrificed with CO2 gas, and then spleens removed from the mice. A splenocyte suspension was prepared from the spleens with Complete T-cell Medium (hereinafter, CTM). The splenocytes derived from each three mice per group were mixed. The mixed splenocytes were stained with an FITC-labeled anti-CD8 antibody (BD Pharmingen) and a PE-labeled HLA tetramer (MBL) against Peptide SEQ ID NO. 1, and analyzed for peptide-specific CTLs with a flow cytometer.
The peptide (SEQ ID No. 1) solution was added to a part of the splenocyte at a final concentration of 100 μg/mL, and the cells were stood for about one hour at 37° C., 5% CO2. After excess peptides were washed out with CTM, the peptide-pulsed splenocyte and unpulsed splenocyte were mixed at a ratio of 1:10, and the mixture was seeded on a U-bottom 96 well plate at 3.85×10^5 cells/well. A cell line (hereinafter, also referred to as LLC-HHD-WT1 tumor cells) was established by stably expressing HHD [a chimeric HLA of a human MHC (HLA-A*02:01) and a mouse MHC (H-2D^b)] and antigen peptide (SEQ ID No. 1) in a mouse Lewis lung carcinoma cell line LLC as tumor cells. X-ray (50 Gy) was irradiated to the LLC-HHD-WT1 tumor cells, and then the LLC-HHD-WT1 tumor cells were cultured in the presence of a mouse recombinant IFN-γ (100 ng/mL) for about two days and washed with CTM. […] The concentration of mouse IFN-γ in the culture supernatant was measured with an ELISA kit (R&D Systems). […] 1, and analyzed for peptide-specific CTLs with a flow cytometer.

CCCCOc1nc(N)c2[nH]c(=O)n(Cc3ccc(CN(C)CCOCCOCCOCCOCCO)nc3)c2n1 [Example 2, 6-amino-2-butoxy-9-{[6-(16-hydroxy-2-methyl-5,8,11,14-tetraoxa-2-azahexadecan-1-yl)pyridin-3-yl]methyl}-7,9-dihydro-8H-purin-8-one-trifluoroacetate]
CTL counts responsive to Peptide SEQ ID No. 18 [1]: more

CCCCOc1nc(N)c2[nH]c(=O)n(Cc3ccc(CN(C)CCOCCOCCOCCOCCO)cc3)c2n1 [Example 3, 6-amino-2-butoxy-9-{[4-(16-hydroxy-2-methyl-5,8,11,14-tetraoxa-2-azahexadecan-1-yl)phenyl]methyl}-7,9-dihydro-8H-purin-8-one]
amount of IFN-γ produced from the CTL in the mixed culture, relative to vaccine a without compound (Antigen-Specific CTL; about three days culture with LLC-HHD-WT1 tumor cells and Peptide SEQ ID No. 1, ELISA, average of 3 wells): 4.9 times
difference in CTL specific to Peptide SEQ ID No. 1 versus vaccine a without compound (Antigen-Specific CTL; after about three days culture with LLC-HHD-WT1 tumor cells and Peptide SEQ ID No. 1): 3.6 times
CTLs specific to Peptide (SEQ ID No. 1) in splenocyte, relative to vaccine a without compound (Antigen-Specific CTL; before culture, flow cytometry (tetramer), 32.5 ng per body in vaccine a, twice): 1.7 times
change of CTL specific to Peptide SEQ ID No. 1 on culture with tumor cells (Antigen-Specific CTL; splenocytes mixed with tumor cells and cultured in the presence of Peptide SEQ ID No. 1): increased
